Assay results from patent publication US20220372585A1, “Sensors for Aromatic Compounds and Methods of Making and Using Same” (Washington University, priority 2021, published 2022).
“Also recorded” adds a separate entry of the source. Read-outs that look alike come from different tables or passages of the source.

Assays:
[1] = system: TynA-FeaR system; assay: microbe, parasite or virus in culture; details: for EC50: read-out: KA (half maximal constant); for Fmax / Fmin / n (Hill coefficient): wild-type TynA and FeaR, pCX008, pHJY022
Protocol: (§1) To develop sensors for aromatic amines, the TynA-FeaR system was first characterized in EcN. A sensor plasmid was constructed, which consisted of constitutively expressed TynA and FeaR from E. coli MG1655, and a reporter plasmid, which consisted of GFP under the control of PtynA (see e.g., FIG. 3B). […] Next, the sensitivity and selectivity to different ligands was characterized.
For fluorescence-based quantification, single colonies were transferred to 5 mL LB medium (VWR, Radnor, Pa., USA) in 14 mL round bottom tubes and incubated overnight at 250 rpm and 37° C. Unless otherwise specified, experimental cultures were prepared by diluting overnight cultures 100× into 0.6 mL M9 minimal medium supplemented with 1 mM MgSO4, […]), and 2% w/v glycerol as well as the respective ligands (DA, PEA, Tyra, and Trypta) in 2 mL 96-deep well plates. Cultures were grown for 24 h at 37° C. and 250 rpm. After 5 h and 24 h of incubation, samples were obtained from the cultures for flow cytometry analysis.
(§2) Flow cytometry was performed as previously described. Culture samples were collected and diluted to a final OD600 of ˜0.005-0.01 in 200 mL filtered phosphate-buffered saline supplemented with 2 mg/ml kanamycin in 96-well assay microplates (U-bottom, REF-353910 from BD Biosciences, San Jose, Calif., USA). The fluorescence of the samples was measured using a Millipore Guava EasyCyte High Throughput flow cytometer with a 488 nm excitation laser and 512/18 nm emission filter. Cytometry data was gated by forward and side scatter. FlowJo (TreeStar Inc.) was used to obtain the arithmetic mean of the fluorescence distribution. The averages of the arithmetic means were calculated from three biological replicates. The average fluorescence of the non-fluorescent wild-type cell was subtracted from each sample to obtain the final fluorescence (au) values (Equation 2). To obtain the relative fluorescence in FIG. 6A-FIG. 6C, fluorescence values for each variant were normalized to the fluorescence of the wild-type sensor using Equation 3.
The Hill equation (Equations 4 and 5) was used to fit lines to the fluorescence data. The model was fit to the experimentally collected data by minimizing the root mean square error (RMSE; Equation 6).

[2] = system: FeaR (TynA inactivated); details: 0.5 mM, FIG. 3C
Protocol: as §1
For fluorescence-based quantification, single colonies were transferred to 5 mL LB medium (VWR, Radnor, Pa., USA) in 14 mL round bottom tubes and incubated overnight at 250 rpm and 37° C. […]
as §2, with “Culture samples were collected and diluted to a final OD600 of ˜0.005-0.01 in 200 mL filtered phosphate-buffered saline supplemented with 2 mg/ml kanamycin in 96-well assay microplates (U-bottom, REF-353910 from BD Biosciences, San Jose, Calif., USA).” left out, “Cytometry data was gated by forward and side scatter.” left out

[3] = system: G415H TynA with wild-type FeaR; type: cell-based, E. coli MG1655; details: G415H
Protocol: (§3) Flow cytometry was performed as previously described. […] Cytometry data was gated by forward and side scatter.

[4] = system: G494S TynA and A81S FeaR; type: cell-based, E. coli MG1655; details: G494S TynA and A81S FeaR; 5 h and 24 h; FIG. 23A-B
Protocol: as §3

[5] = system: G494S TynA with A81T FeaR; type: cell-based, E. coli MG1655; details: G494S*
Protocol: as §3

[6] = system: G494S TynA with wild-type FeaR; type: cell-based, E. coli MG1655; details: G494S TynA, wild-type FeaR; 5 h and 24 h; FIG. 18A-B
Protocol: as §3

[7] = system: wild-type TynA with A81T FeaR; type: cell-based, E. coli MG1655; details: wild-type TynA; 1 mM, 24 h; FIG. 21
Protocol: as §3

[8] = system: wild-type TynA with L108T FeaR; type: cell-based, E. coli MG1655; details: L108T FeaR; 24 h; FIG. 28B
Protocol: as §3

[9] = system: wild-type TynA with M83Q FeaR; type: cell-based, E. coli MG1655; details: M83Q FeaR; 24 h; FIG. 28A
Protocol: as §3

[10] = system: wild-type TynA with W110C FeaR; type: cell-based, E. coli MG1655; details: W110C FeaR; 24 h; FIG. 28D
Protocol: as §3

[11] = system: wild-type TynA with W110S FeaR; type: cell-based, E. coli MG1655; details: W110S FeaR; 24 h; FIG. 28C
Protocol: as §3

[12] = system: wild-type TynA and A81L FeaR; assay: microbe, parasite or virus in culture; type: cell-based, E. coli MG1655; details: A81L FeaR
Protocol: as §3

[13] = system: wild-type TynA with A81P FeaR; assay: microbe, parasite or virus in culture; type: cell-based, E. coli MG1655; details: A81P FeaR; 5 h and 24 h; FIG. 25A-B
Protocol: as §3

[14] = system: TynA-KP with FeaR-KA I109N; assay: GFP fluorescence from PtynA-MG with TynA-KP and FeaR-KA I109N; type: cell-based, Klebsiella aerogenes
Source text: FIG. 32. […] Sensor system with PtynA-MG, TynA-KP and FeaR-KA was chosen as the wild type (WT) for further directed evolution. TynA-KP was employed to reduce the possible interference from DA during evolution processes. Values and error bars are the average and standard deviation of biological triplicate, respectively.
FIG. 33A-FIG. 33B. […] The expression of PtynA-MG was regulated by the TynA-KP with FeaR-KA I109N mutant. Points represent experimental data while lines represent the fitted curves. […] Values and error bars are the average and standard deviation of biological triplicate, respectively.

NCCc1ccc(O)c(O)c1 [Dopamine, dopamine]
fold increase in GFP expression ([1]; 0.5 mM, in the presence of TynA, FIG. 3C): 410 fold
EC50 ([1]; Escherichia coli, 5 h): 28 µM
EC50 ([1]; Escherichia coli, 24 h): 68 µM
fold induction at 1250 µM ([1]; Escherichia coli, read-out: fold induction of the reporter): ~900
Fmax ([1]; FIG. 3D, 24 h induction): 881
Fmin ([1]; FIG. 3D, 24 h induction): 0.1
n (Hill coefficient) ([1]; FIG. 3D, 24 h induction): 3
Fmax ([1]; FIG. 14, 5 h induction): 258
Fmin ([1]; FIG. 14, 5 h induction): 4.4
n (Hill coefficient) ([1]; FIG. 14, 5 h induction): 1.5
induction of PtynA [2]: eliminated
response ([3]; 5 h, FIG. 17B): lack of response
response ([3]; 24 h, FIG. 4D, listed as DA): lack of response; also recorded: minimal response
response [4]: lack of response
response ([5]; 5 h, FIG. 17A): lack of response
response ([5]; 24 h, FIG. 4C): lack of response
response [6]: lack of response
effect of the A81T FeaR mutation on the response of the sensor [7]: significantly reduced
response [8]: lack of response
response [9]: lack of response
response [10]: lack of response
response [11]: lack of response
response ([12]; 5 h, FIG. 24): lack of response
response ([12]; 24 h, FIG. 5C): lack of response
response [13]: lack of response
response ([14]; FeaR-KA I109N, 5 h and 24 h, FIG. 33A-B): lack of response
induction of fluorescence ([14]; I109N variant, 0.5 mM, 24 h, FIG. 32): not
